# Columns and labels:
# [1] = Whole blood radioactivity of 3H-etoposide with/without oral cyclosporin (Example 6, NP960102); assay type: in vivo, rats; conditions: Grp C: CsA 5/PO, then Etoposide 1/PO + CsA 5/PO
# [2] = Whole blood radioactivity of oral 3H-etoposide with oral ketoconazole (Example 7, NP960501); assay type: in vivo, rats; conditions: ketoconazole 2, 10, 50 mg/kg oral
# [3] = male, Sprague-Dawley, rat, in vivo
# [4] = system: highly resistant human KB carcinoma cells; conditions: cited from earlier work
# [5] = Serum paclitaxel after IV or oral paclitaxel with/without oral cyclosporin (Example 1); assay type: in vivo, Sprague Dawley rats
# [6] = Total radioactivity and unchanged paclitaxel pharmacokinetics, rats n = 10 (Tables 5A, 5B)
# [7] = rat, in vivo, po
# [8] = rat, in vivo, iv
# [9] = Whole blood and urine radioactivity after radiolabeled paclitaxel with/without cyclosporin (Example 3)
# [10] = in vivo, po; cited from earlier work
smiles,measurement,setting,value
"COc1cc([C@@H]2c3cc4c(cc3[C@@H](O[C@@H]3O[C@@H]5CO[C@@H](C)O[C@H]5[C@H](O)[C@H]3O)[C@H]3COC(=O)[C@H]23)OCO4)cc(OC)c1O [Etoposide, etoposide]",F%,[1],about 96%
"CC(=O)N1CCN(c2ccc(OCC3COC(Cn4ccnc4)(c4ccc(Cl)cc4Cl)O3)cc2)CC1 (centres unmarked) [Ketoconazole, ketoconazole]",effect on oral absorption of etoposide compared to etoposide alone,[2],did not enhance the oral absorption of etoposide
same,dose-response of oral absorption of radioactivity,[3],no further increase in oral absorption of radioactivity
same,reversal of MDR,[4],reverse MDR
"CC(=O)O[C@H]1C(=O)[C@@]2(C)[C@H]([C@H](OC(=O)c3ccccc3)[C@]3(O)C[C@H](OC(=O)[C@H](O)[C@@H](NC(=O)c4ccccc4)c4ccccc4)C(C)=C1C3(C)C)[C@]1(OC(C)=O)CO[C@@H]1C[C@@H]2O [Paclitaxel, paclitaxel]",bioavailability of the paclitaxel in serum,[5]; oral paclitaxel in the absence of cyclosporin,less than 1%
same,bioavailability of the paclitaxel in serum,[5]; third group: cyclosporin 1 h prior to and with oral paclitaxel,6-7%
same,"AUC0-24hr, unchanged paclitaxel",[6]; PO + CsA,4270 ng·h/mL
same,"AUC0-[…], unchanged paclitaxel",[6]; PO + CsA,5410 ng·h/mL
same,"AUC0-[…], unchanged paclitaxel",[6]; PO Dose,349 ng·h/mL
same,"AUC0-24hr, unchanged paclitaxel",[6]; PO Dose 9 mg/kg,314 ng·h/mL
same,"AUC0-00, total radioactivity",[6]; Paclitaxel Oral 9 mg/kg,4.5 μg equiv.hr/mL
same,"AUC0-24hr, total radioactivity",[6]; Paclitaxel Oral 9 mg/kg,1.4 μg equiv.hr/mL
same,"AUC0-00, total radioactivity",[6]; Paclitaxel Oral + CsA,15.0 μg equiv.hr/mL
same,"AUC0-24hr, total radioactivity",[6]; Paclitaxel Oral + CsA 5 mg/kg 1 hr prior to and concomitantly,8.1 μg equiv.hr/mL
same,"F (%) Based on AUC0-00, total radioactivity",[7],16.4%
same,% Dose in urine (4-24 hr),[8],2.2 % Dose
same,"AUC0-24, total radioactivity in blood",[9]; PO (B),3.2 μg eq × hr/ml
same,Tmax,[9]; PO (B) column as printed,25 h
same,"AUC0-24, total radioactivity in blood","[9]; PO+CsA (C), CsA 1 hr prior to and simultaneously",12.1 μg eq × hr/ml
same,absorbed when administered orally,[10],less than 1%
